# Laboratory results as given in patent publication US20230390345A1, “COMBINATION THERAPY COMPRISING HER-2-DC1 VACCINE, A PROBIOTIC, AND SEMAPHORIN” (H. LEE MOFFITT CANCER CENTER AND RESEARCH INSTITUTE, INC., priority 2020, published 2023).
# What was measured:
# 4T1 = assay: Therapies in TNBC model 4T1 (FIG. 8); assay type: in vivo, Balb/C mice; settings: 4T1 TNBC model
# Description: (§1) Balb/C mice or C57BL/6 mice received tumor cells on day 0 followed by different treatments; two doses of Taxol given intraperitoneally (i.p.) once a week; CDK inhibitor, abemaciclib was administered by oral gavage till end point; Anti-PD-L1 was given i.p. twice a week until end point; DC1 vaccine was given intratumorally.
# TUBO tumors = assay: Monotherapies in HER2+ BC murine model (FIG. 8); assay type: in vivo, Balb/C mice; settings: monotherapy
# Description: as §1
compound,measurement,setting,value
"CC(=O)O[C@H]1C(=O)[C@@]2(C)[C@H]([C@H](OC(=O)c3ccccc3)[C@]3(O)C[C@H](OC(=O)[C@H](O)[C@@H](NC(=O)c4ccccc4)c4ccccc4)C(C)=C1C3(C)C)[C@]1(OC(C)=O)CO[C@@H]1C[C@@H]2O [taxol, paclitaxel]",tumor growth,4T1,no effect on tumor growth
same,tumor growth,TUBO tumors,modestly delayed tumor growth
